US10821093B2, “Antibacterial microelement chelates and the use thereof in animal feeds” (priority 2012, dated 2020)
Where two headings read alike, the source gives them in different places.

Columns and labels:
Micrococcus luteus = assay: MIC, liquid culture dilution; type: cell-based
LSE = assay: Minimal lethal concentration (CID); type: cell-based, Saccharomyces cerevisiae
Experimental: (§1) It is the concentration of the active ingredient that causes the complete death of the microbes. Under sterile conditions within a laminar box, a dilution series was prepared from the liquid culture mediums that were incubated for 24 hours, then from the dilution series 100 μl each was placed onto agar dishes and spread with a sterile glass rod. The incubation period is 24 hours under conditions favorable for the growth of the microbe, then the number of colonies on the agar dishes are counted.
(§2) In the case where no colonies are visible on the culture medium after the incubation, it indicates the microbe killing effect (CID) of the trace element chelate. The number of countable colonies grown on the agar dishes gives the actual MIC value of the given trace element chelate.

Saccharomyces cerevisiae = assay: MIC, liquid culture dilution; type: cell-based
Lactococcus = assay: Minimal lethal concentration (CID); type: cell-based
Experimental: as §1, §2

Clostridium = assay: Minimal lethal concentration (CID); type: cell-based
Experimental: as §1, §2

Salmonella enterica = assay: MIC, liquid culture dilution (single chelates and cross-dilution combinations); type: cell-based, Salmonella enterica subp. Enterica serovar enteritidis
Arcanobacterium piogenes = assay: MIC; type: cell-based
[1] = system: Brachyspira hyodysenteriae; assay: MIC (single chelates and combinations)
Clostridium perfringens = type: cell-based
LACTIC ACID PRODUCERS = assay: MIC, liquid culture dilution; type: cell-based
Escherichia coli = assay: MIC, liquid culture dilution (single chelates and cross-dilution combinations); type: cell-based
E. coli = system: E. coli
Excerpt: The experimental animals had E. coli infection. The control group received the standard antibiotic supplement in the feed to control the E. coli infection.

Staphylococcus aureus = assay: MIC, liquid culture dilution; type: cell-based
Streptococcus agalactiae = assay: MIC, liquid culture dilution; type: cell-based
Salmonella = assay: Minimal lethal concentration (CID); type: cell-based
Experimental: as §1, §2

S. tiphy = type: cell-based
[2] = vs antibiotic-supplemented control

Row | Compound | Minimal inhibitory concentration (MIC) (Micrococcus luteus) [ppm] | Minimal inhibitory concentration (MIC) (Saccharomyces cerevisiae) [ppm] | Minimal inhibitory concentration (MIC) (Salmonella enterica) [ppm] | Minimal inhibitory concentration (MIC) (Arcanobacterium piogenes) [ppm] | Minimal inhibitory concentration (MIC) [1] [ppm] | Minimal inhibitory concentration (MIC) (Clostridium perfringens) [ppm] | Minimal inhibitory concentration (MIC) (LACTIC ACID PRODUCERS) [ppm] | Minimal inhibitory concentration (MIC) (Escherichia coli) [ppm] | Minimal inhibitory concentration (MIC) (Staphylococcus aureus) [ppm] | Minimal inhibitory concentration (MIC) (Streptococcus agalactiae) [ppm] | other results
1 | copper mono-glycinate chelate | 200 | 800 | 400 | 92 | 90 | 50 | 800 | 400 | – | – | CID concentration (LSE): 800 ppm; CID concentration (Lactococcus): 800 ppm; CID concentration (Clostridium; Clostridium): 200 ppm; CID value relative to MIC value (Clostridium; Clostridium strains): twice as much
2 | zinc ammonium maleinate | – | – | – | – | – | – | – | – | – | – | Daily weight gain (E. coli; 38 days): 391 g; Feed utilization (E. coli; 38 days): 2.04 kg/kg; Body weight at the end of the experiment (E. coli; 38 days, initial weight 9.19 kg): 24.05 kg; Average daily weight gain higher than control group (E. coli; [2]): 45%; Feed utilization better than control group (E. coli; [2]): 13%
3 | NCC(=O)[O-].[Ag+] [Ag glycinate] | – | – | – | 184 | – | – | – | – | – | – | –
4 | Manganese mono-glycinate | 100 | 1000 | 300 | – | – | – | 1000 | 300 | – | – | –
5 | [NH2][Zn]([NH2])([O]C(=O)C(O)CC(=O)O)[O]C(=O)C(O)CC(=O)O (stereo not shown) [Zn diammine bis-malate, Zn diammonium malate] | – | 500 | 120 | 21 | 2315 | 340 | 500 | 80 | 80 | 20 | –
6 | NCC(=O)[O-].NCC(=O)[O-].O.[Cu+2] [Copper (H2O) bis-glycinate] | 60 | 800 | 400 | 32 | 96 | 100 | 800 | 300 | 5.3 | 171 | –
7 | NCC(=O)O.O=S(=O)([O-])[O-].[Zn+2] [Zinc mono-glycinate, zinc mono-glycinate chelate] | 60 | 800 | 100 | – | >4000 | 210 | 800 | 100 | 40 | 80 | CID concentration (LSE): 800 ppm; CID concentration (Lactococcus): 800 ppm; CID concentration (Salmonella; Salmonella): 3000 ppm; CID value relative to MIC value (Salmonella; Salmonella strains): 30 fold; CID concentration (S. tiphy): 3000 ppm; Minimal inhibitory concentration (MIC) (Staphylococcus aureus; listed as Zn mono-glycinate): 20 ppm; Minimal inhibitory concentration (MIC) (Streptococcus agalactiae; listed as Zn mono-glycinate): 40 ppm
8 | Zn(Glycine)2 [Zinc (H2O) bis-glycinate] | 60 | 500 | 220 | – | >4000 | 180 | 800 | 120 | 4 | 29 | –
